In this data set the target is HIF1A. Kind of data set: HeLa, 100 nM transfected, 24 h, mean of 3. Particulars: ASO.

Bases are written 5' to 3'; sugars and linkages follow in the same order, as letters with counts (s phosphorothioate, o phosphodiester; PS: all linkages phosphorothioate). C may stand for cytosine or 5-methylcytosine; the collection does not tell. l = locked nucleic acid (LNA); d = 2'-deoxy (DNA)

ACTGCCTTCTTAC (sugars l4 d6 l3, PS) displayed a caspase activation (% of PBS control) of 410.

“TGGCAAGCATCCTGTA (sugars ldllldddddddlldl, PS)” gave a caspase activation (% of PBS control) of 440.

With “TGGCAAGCATCCTGTA (sugars ldldddddddddlddl, PS)”, the caspase activation (% of PBS control) worked out at 172.

With “GTTACTGCCTTCTTAC (sugars l1 d3 l1 d8 l3, PS)”, the caspase activation (% of PBS control) was determined as 174.

“TGGCAAGCATCCTGTA (sugars ldlllddddddddldl, PS)” gave a caspase activation (% of PBS control) of 448.

For the sequence “GGCAAGCATCCTG (sugars l3 d7 l1 d1 l1, PS)”, the caspase activation (% of PBS control) was 632.

The sequence “GTTACTGCCTTCTTAC (sugars l1 d2 l1 d9 l3, PS)” came in with a caspase activation (% of PBS control) of 131.

As for GTTACTGCCTTCTTAC (sugars l5 d10 l1, PS), the caspase activation (% of PBS control) is 284.

The sequence “TGGCAAGCATCCTGTA (sugars lddllddddddldlll, PS)” had a caspase activation (% of PBS control) of 353.

On to “TGGCAAGCATCCTGTA (sugars lldddddddddldldl, PS)”, for which the caspase activation (% of PBS control) came out at 423.

In the case of “GTTACTGCCTTCTTAC (sugars ldldlddddddldddl, PS)”, the caspase activation (% of PBS control) was found to be 234.

For “GTTACTGCCTTCTTAC (sugars l2 d2 l1 d9 l2, PS)”, the caspase activation (% of PBS control) stood at 138.

In turn, “GTTACTGCCTTCTTAC (sugars lldlddddddddlddl, PS)” returned a caspase activation (% of PBS control) of 135.

As for “GTTACTGCCTTCTTAC (sugars l2 d1 l2 d8 l3, PS)”, the caspase activation (% of PBS control) came out at 318.

“TGGCAAGCATCCTGTA (sugars l2 d1 l2 d9 l2, PS)” displayed a caspase activation (% of PBS control) of 419.

With “GTTACTGCCTTCTTAC (sugars l5 d6 l1 d1 l3, PS)”, the caspase activation (% of PBS control) is 441.

For the sequence “GGCAAGCATCCTG (sugars l1 d2 l1 d7 l2, PS)”, the caspase activation (% of PBS control) is 361.

Sequence “TGGCAAGCATCCTGTA (sugars lddlldddddddldll, PS)” yielded a caspase activation (% of PBS control) of 412.

Take “GTTACTGCCTTCTTAC (sugars ldlllddddddldlll, PS)”: the caspase activation (% of PBS control) was found to be 427.

With “GTTACTGCCTTCTTAC (sugars l3 d8 l1 d1 l3, PS)”, the caspase activation (% of PBS control) was 197.

For “TGGCAAGCATCCTGTA (sugars l3 d8 l1 d2 l2, PS)”, the caspase activation (% of PBS control) stood at 297.

Turning to “TGGCAAGCATCCTGTA (sugars llddldddddddlddl, PS)”, the caspase activation (% of PBS control) is 354.

Regarding TACTGCCTTCTTA (sugars l3 d9 l1, PS), the caspase activation (% of PBS control) is 286.

“GTTACTGCCTTCTTAC (sugars l3 d9 l2 d1 l1, PS)”: the caspase activation (% of PBS control) stood at 202.

Turning to GCAAGCATCCTGT (sugars l4 d7 l2, PS), the caspase activation (% of PBS control) stood at 352.

TGGCAAGCATCCT (sugars l1 d10 l2, PS) registered a caspase activation (% of PBS control) of 253.

Consider “TTACTGCCTTCTT (sugars l1 d9 l1 d1 l1, PS)”, for which the caspase activation (% of PBS control) came to 127.

As to “GCAAGCATCCTGT (sugars l1 d2 l1 d8 l1, PS)”, the caspase activation (% of PBS control) came to 187.

With “GTTACTGCCTTCTTAC (sugars ldddldddddddlldl, PS)”, the caspase activation (% of PBS control) was 245.

As to “CAAGCATCCTGTA (sugars l2 d1 l1 d6 l3, PS)”, the caspase activation (% of PBS control) turned out to be 119.

In turn, “ACTGCCTTCTTAC (sugars l2 d1 l1 d6 l3, PS)” gave a caspase activation (% of PBS control) of 166.

With “TGGCAAGCATCCTGTA (sugars lddldddddddlldll, PS)”, the caspase activation (% of PBS control) is 356.

Regarding “GTTACTGCCTTCTTAC (sugars l4 d7 l2 d2 l1, PS)”, the caspase activation (% of PBS control) was found to be 264.

“TGGCAAGCATCCTGTA (sugars ldlddddddddddldl, PS)” returned a caspase activation (% of PBS control) of 147.

GTTACTGCCTTCTTAC (sugars l3 d10 l3, PS) yielded a caspase activation (% of PBS control) of 134.

As for “TGGCAAGCATCCTGTA (sugars llldlddddddldddl, PS)”, the caspase activation (% of PBS control) amounted to 253.

On to CAAGCATCCTGTA (sugars l3 d7 l3, PS), for which the caspase activation (% of PBS control) was 437.

Take “GTTACTGCCTTCT (sugars l1 d1 l1 d9 l1, PS)”: the caspase activation (% of PBS control) was 117.

With “TGGCAAGCATCCT (sugars l2 d1 l1 d6 l3, PS)”, the caspase activation (% of PBS control) worked out at 259.

“GTTACTGCCTTCTTAC (sugars llddlddddddldldl, PS)” returned a caspase activation (% of PBS control) of 235.

As for “TGGCAAGCATCCTGTA (sugars l4 d7 l1 d3 l1, PS)”, the caspase activation (% of PBS control) amounted to 299.

For the sequence “TGGCAAGCATCCTGTA (sugars l1 d10 l1 d1 l3, PS)”, the caspase activation (% of PBS control) came to 348.

“TGGCAAGCATCCTGTA (sugars ldlllddddddldlll, PS)”: the caspase activation (% of PBS control) worked out at 476.

In turn, “TGGCAAGCATCCT (sugars l1 d1 l1 d7 l3, PS)” showed a caspase activation (% of PBS control) of 127.

The sequence “TGGCAAGCATCCTGTA (sugars l1 d1 l3 d6 l5, PS)” had a caspase activation (% of PBS control) of 482.

Turning to GCAAGCATCCTGT (sugars l3 d8 l2, PS), the caspase activation (% of PBS control) came out at 450.

For the sequence “TGGCAAGCATCCTGTA (sugars lddllddddddllldl, PS)”, the caspase activation (% of PBS control) was found to be 416.

As for “GTTACTGCCTTCTTAC (sugars l3 d9 l1 d2 l1, PS)”, the caspase activation (% of PBS control) is 185.

On to “GTTACTGCCTTCTTAC (sugars l5 d6 l1 d2 l2, PS)”, for which the caspase activation (% of PBS control) came out at 442.

GTTACTGCCTTCTTAC (sugars l5 d8 l3, PS): the caspase activation (% of PBS control) is 512.

As for GTTACTGCCTTCTTAC (sugars l2 d12 l2, PS), the caspase activation (% of PBS control) came to 103.

The sequence “GTTACTGCCTTCTTAC (sugars l1 d10 l2 d2 l1, PS)” showed a caspase activation (% of PBS control) of 134.

Consider “TGGCAAGCATCCTGTA (sugars l3 d1 l1 d7 l4, PS)”, for which the caspase activation (% of PBS control) turned out to be 377.

For “TACTGCCTTCTTA (sugars l1 d1 l2 d6 l3, PS)”, the caspase activation (% of PBS control) was 585.

TTACTGCCTTCTT (sugars l2 d9 l2, PS) came in with a caspase activation (% of PBS control) of 148.

In turn, GTTACTGCCTTCT (sugars l1 d9 l3, PS) yielded a caspase activation (% of PBS control) of 171.

The sequence GGCAAGCATCCTG (sugars l4 d7 l2, PS) yielded a caspase activation (% of PBS control) of 528.

The sequence “TGGCAAGCATCCTGTA (sugars l1 d3 l1 d8 l3, PS)” returned a caspase activation (% of PBS control) of 172.

As to “GTTACTGCCTTCT (sugars ldllddddddldl, PS)”, the caspase activation (% of PBS control) is 156.

“GCAAGCATCCTGT (sugars l1 d1 l2 d7 l2, PS)”: the caspase activation (% of PBS control) came out at 220.

For the sequence GTTACTGCCTTCTTAC (sugars l5 d6 l5, PS), the caspase activation (% of PBS control) stood at 624.

Sequence “GCAAGCATCCTGT (sugars l2 d1 l1 d8 l1, PS)” came in with a caspase activation (% of PBS control) of 314.

Turning to “TGGCAAGCATCCTGTA (sugars l1 d1 l1 d12 l1, PS)”, the caspase activation (% of PBS control) was determined as 180.

As to “TGGCAAGCATCCTGTA (sugars ldddlddddddlddll, PS)”, the caspase activation (% of PBS control) was determined as 221.

In the case of CAAGCATCCTGTA (sugars l1 d10 l2, PS), the caspase activation (% of PBS control) was determined as 111.

In turn, “TGGCAAGCATCCT (sugars l1 d1 l2 d8 l1, PS)” displayed a caspase activation (% of PBS control) of 327.

As to “GTTACTGCCTTCTTAC (sugars ldldlddddddlllll, PS)”, the caspase activation (% of PBS control) came out at 342.

“GTTACTGCCTTCTTAC (sugars l3 d1 l1 d10 l1, PS)” yielded a caspase activation (% of PBS control) of 185.

GTTACTGCCTTCT (sugars l2 d9 l2, PS) registered a caspase activation (% of PBS control) of 114.

Consider “GTTACTGCCTTCTTAC (sugars l1 d2 l2 d9 l2, PS)”, for which the caspase activation (% of PBS control) came to 149.

Turning to ACTGCCTTCTTAC (sugars l1 d11 l1, PS), the caspase activation (% of PBS control) stood at 130.

As to “TGGCAAGCATCCTGTA (sugars l3 d1 l1 d9 l2, PS)”, the caspase activation (% of PBS control) is 382.

In the case of “TGGCAAGCATCCTGTA (sugars ldddldddddddlddl, PS)”, the caspase activation (% of PBS control) was 173.

In turn, TGGCAAGCATCCTGTA (sugars l3 d11 l2, PS) yielded a caspase activation (% of PBS control) of 314.

For “TGGCAAGCATCCTGTA (sugars ldlldddddddddldl, PS)”, the caspase activation (% of PBS control) turned out to be 297.

As for “GGCAAGCATCCTG (sugars l2 d1 l1 d6 l3, PS)”, the caspase activation (% of PBS control) was 502.

As to “GTTACTGCCTTCT (sugars l1 d2 l1 d8 l1, PS)”, the caspase activation (% of PBS control) is 110.

With “TGGCAAGCATCCTGTA (sugars llldlddddddlldll, PS)”, the caspase activation (% of PBS control) is 458.

For the sequence “TGGCAAGCATCCTGTA (sugars l5 d6 l2 d2 l1, PS)”, the caspase activation (% of PBS control) was 344.

In turn, “TGGCAAGCATCCTGTA (sugars lddllddddddldddl, PS)” had a caspase activation (% of PBS control) of 361.

Consider TGGCAAGCATCCTGTA (sugars l3 d9 l4, PS), for which the caspase activation (% of PBS control) worked out at 582.

Turning to “TGGCAAGCATCCTGTA (sugars ldldddddddddldll, PS)”, the caspase activation (% of PBS control) amounted to 252.

Sequence “TTACTGCCTTCTT (sugars l1 d1 l1 d7 l3, PS)” had a caspase activation (% of PBS control) of 183.

In the case of “GTTACTGCCTTCTTAC (sugars ldddlddddddldlll, PS)”, the caspase activation (% of PBS control) is 162.

Sequence GTTACTGCCTTCTTAC (sugars l4 d10 l2, PS) displayed a caspase activation (% of PBS control) of 190.

Sequence GTTACTGCCTTCTTAC (sugars l4 d11 l1, PS) had a caspase activation (% of PBS control) of 159.

For the sequence “TGGCAAGCATCCTGTA (sugars l3 d1 l1 d10 l1, PS)”, the caspase activation (% of PBS control) was 354.

In the case of “GTTACTGCCTTCT (sugars l1 d2 l1 d7 l2, PS)”, the caspase activation (% of PBS control) turned out to be 136.

Consider “GTTACTGCCTTCTTAC (sugars l2 d1 l1 d7 l5, PS)”, for which the caspase activation (% of PBS control) was determined as 335.

The values above are taken from the OligoGym collection.
